From PubChem BioAssay (NCI) come the findings set out here.

SMILES strings stand for the structures.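 How tested: cells in 96-well plates exposed to compound for 48 hours at five concentrations. At the GI50, growth is halved. TGI: concentration producing complete growth inhibition.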

Holding throughout (assay): growth of human tumour cells (NCI), 48 h
For assay [1], the system named is U251 CNS.
The subject of assay [2] is HCT-15 colon.
In assay [3] the test system is LOX IMVI melanoma.
The subject of assay [4] is SK-MEL-5 melanoma.
Assay [5] has as its system DMS 114 small cell lung.
For assay [6], the system named is HL-60(TB) leukemia.
Assay [7] relates to OVCAR-4 ovarian.
For assay [8], the system named is SN12C renal.
In assay [9] the test system is NCI-H460 lung.
The test system of assay [10] is SNB-75 CNS.
The test system of assay [11] is UO-31 renal.
The test system of assay [12] is M19-MEL melanoma.
For assay [13], the system named is NCI/ADR-RES ovarian.
Assay [14] relates to BT-549 breast.
Assay [15] has as its system DU-145 prostate.

Consider `CC(N)Cc1cccc(C(F)(F)F)c1` (stereo not drawn), for which the TGI in assay [1], in assay [2], in assay [3], in assay [4], in [5] and in [6] was above 100 µM each time. The TGI in [7], in assay [8], in [9], in [10], in assay [11] and in [12] was above 100 µM throughout.

With `CN(C)CCOc1cc2c(c3ccccc13)-c1ccccc1C2=O`, the TGI in [1] came out at 6.58 µM; in [2] it was 4.19 µM; in assay [3], 2.53 µM; in [4] it was 2.96 µM; in assay [13], 2.64 µM; in [5], 2.65 µM. The TGI in [6] is 2.7 µM; in assay [7], 2.68 µM; in assay [8], 7.43 µM; in assay [9], 2.34 µM; in [10] it was 4.64 µM; in [11], 3.15 µM. In assay [12], this compound yielded a TGI of 2.89 µM.

Take `CO/C(=N/N1CC1C(F)(F)F)c1ccncc1` (stereo not drawn): the TGI in assay [1], in assay [2], in assay [4], in assay [13], in [6] and in assay [7] was above 100 µM in each case. Also, the TGI in [14], in assay [15], in assay [8], in assay [9], in assay [10] and in assay [11] was above 100 µM each time.

For the compound `O=C(CCl)N1CCCCC1C1(c2cc3ccccc3[nH]2)OCCO1` (stereo not drawn), the TGI in [1] is 12.7 µM; in [2], 33.9 µM; in assay [3], 0.141 µM; in [4], 22.6 µM; in [13], 14.6 µM; in [6], above 100 µM. Moreover, the TGI in assay [7] is 9.28 µM; in [14], 6.83 µM; in [15], 9.89 µM; in assay [8] it was 9.85 µM; in [9], above 34.5 µM; in assay [10] it was 7.3 µM. The same compound had a TGI in [11] of 11.3 µM.

Take `O=C(O)C(Cc1cccs1)NC(=O)C(F)(F)F` (stereo not drawn): the TGI in assay [1], in assay [2], in [3], in [4], in assay [13] and in assay [5] was above 100 µM throughout. For the same compound, the TGI in [6], in assay [7], in [8], in [9], in [10] and in assay [11] was above 100 µM each time. Moreover, in assay [12], the TGI was above 100 µM.

Take `CCCCOC(=O)CN1C(=O)c2ccccc2C1=O`: the TGI in [1], in assay [2], in assay [3], in assay [4], in assay [6] and in [7] was above 100 µM throughout. The TGI in assay [9], in assay [10], in assay [11] and in assay [12] was above 100 µM each time.

In the case of `C#CCCCC(=C)C[C@H](OCc1ccccc1)[C@H]1OC(=O)[C@@H]1C`, the TGI in [1], in assay [2], in assay [13], in assay [6], in assay [7] and in assay [14] was above 100 µM throughout. Moreover, the TGI in [8] is above 100 µM; in assay [9], above 100 µM; in [10], above 100 µM; in assay [11] it was 58.8 µM.

Turning to `COC(=O)c1cccc(NC(=O)Nc2ccc3oc(=O)c4ccccc4c3c2)c1`, the GI50 was above 100 µM in assay [2]; 46.5 µM in assay [6]; above 100 µM in [15]; above 100 µM in [9]; above 100 µM in assay [11]. In addition, the TGI in [2], in assay [6], in assay [15], in assay [9] and in [11] was above 100 µM in each case.
